Source: publication PMC4067742, “Direct Observations of Amyloid β Self-Assembly in Live Cells Provide Insights into Differences in the Kinetics of Aβ(1–40) and Aβ(1–42) Aggregation” (Chemistry & Biology, 2014)

System: SH-SY5Y cells
Experiment: dSTORM superresolution imaging of intracellular aggregates
Format: cell-based, human
Settings: 500 nM monomers, fixed cells; for average size of intracellular aggregates (diameter / longest dimension) after 24 hr: pixel counting in dSTORM images, only aggregates above resolution limit (55–70 nm), n = 18–27; for change in size of intracellular aggregates between 24 and 48 hr: pixel counting in dSTORM images (Figure 5B)
Procedure: To further investigate the nature of the intracellular Aβ(1–40) and Aβ(1–42) aggregates, we used superresolution fluorescence microscopy to analyze their physical appearance. […] Thus, we treated SH-SY5Y cells with 500 nM of ^HF647Aβ(1–40) or 500 nM of ^HF647Aβ(1–42) monomers for periods of 24 and 48 h. Thereafter, the cells were fixed, immersed in switching buffer, and imaged at single-molecule resolution using a homebuilt total internal reflection fluorescence (TIRF) microscope operated under highly inclined illumination ([Tokunaga et al., 2008]) to obtain images from an image plane within the cells. Superresolved images (Figure 5A) of the intracellular ^HF647Aβ(1–40) and ^HF647Aβ(1–42) aggregates were then reconstructed as described in the Experimental Procedures. dSTORM results in a dramatic increase in resolution compared with conventional confocal imaging (Figure S4). In this case, the lateral resolution of our images was calculated to be 55–70 nm using a blind assessment density estimation approach ([Rees et al., 2012]). Features larger than the lateral resolution limit can, therefore, be interpreted with confidence as having approximately the correct size and shape. […] The ^HF647Aβ(1–42) aggregates, by contrast, appear to include both spherical and elongated species, with an average size along their longest dimension of approximately 225 nm (Figure 5B). The observation that, after 24 hr, ^HF647Aβ(1–42) forms intracellular species that are larger than those formed by ^HF647Aβ(1–40) is consistent with the differences in their mean fluorescence lifetimes (Figures 4C, 4D, and 5C). […] Comparison of the FLIM and dSTORM data recorded after 24 and 48 hr indicates a qualitative relationship between aggregate size and HF488 fluorescence lifetime (Figures 5B and 5C), supporting the conclusion that the fluorescence lifetime reflects the nature and abundance of the Aβ amyloid aggregates formed in vivo.
Human neuroblastoma cells (SH-SY5Y) were grown in 1:1 minimal essential medium (MEM) and nutrient mixture F-12 Ham (Sigma-Aldrich) with sodium bicarbonate, including 15% heat-inactivated fetal bovine serum, 1% MEM non-essential amino acids, 2 mM […], 1% penicillin-streptomycin (10,000 U/ml K1), and 0.1% fungizone (amphotericin B, […] K1) (Life Technologies). Cells were plated 1 day prior to experiments in glass-bottomed culture dishes (MatTek) at a density of 50,000 cells/14-mm dish. […]
All dSTORM experiments were carried out using HF647-labeled peptides. Fluorescence images for dSTORM were taken on a Nikon Te-300 Eclipse inverted wide field microscope, with a 100×, 1.49 numerical aperture TIRF objective lens, an Andor iXon 887DV electron-multiplying charge-coupled device camera, and a Semrock fluorescence filter set (LF405/488/561/635-A-00). […]

| Substance | average size of intracellular aggregates (diameter / longest dimension) after 24 hr | change in size of intracellular aggregates between 24 and 48 hr |
| --- | --- | --- |
| ^HF647Aβ(1–42): Synthetic amyloid β (1–42) peptide labeled at the N terminus with Hilyte Fluor 647, purchased from Anaspec | approximately 225 nm | no significant change in the size |
| ^HF647Aβ(1–40): Synthetic amyloid β (1–40) peptide labeled at the N terminus with Hilyte Fluor 647, purchased from Anaspec | approximately 160 nm | appear to have increased in size |
